Where a name gives a salt, the structure may show the parent alone. Read-outs that look alike come from different tables or passages of the source.
Tests used:
[1] = system: Cdc7 (pS53MCM2 levels in SW48 cells); experiment: Cdc7 Cell Pharmacodynamics Assay Method 3: pS53MCM2 levels in SW48 cells, 6 hours; assay type: cell-based; settings: for EC50: Homo sapiens, SW48, 6 h, read-out: Biomarker Method 3 (pEC50) (converted)
Cdc7/ASK = Cdc7/ASK (Homo sapiens, UniProt O00311); experiment: Cdc7 Biochemical Assay Method 4: off-chip mobility shift assay (Carna Biosciences); design: purchased Carna Biosciences; host or cells: baculovirus expression system; settings: off-chip MSA, MCM2 peptide, 5 hours; read-out: Biochemical Method 4 (pIC50) (converted)
Description: This protocol describes a method for assaying Cdc7/ASK for activity. The assay is an off-chip mobility shift assay (MSA) run at Carna Biosciences.
1. Preparation of Test Compound Solution.
The test compound was dissolved in and diluted with dimethylsulfoxide (DMSO) to achieve 100-fold higher concentration which was specified by the sponsor. Then the solution was further 25-fold diluted with assay buffer to make the final test compound solution. Reference compounds for assay control were prepared similarly.
Cdc7/ASK: Full-length human Cdc7 [1-574(end) amino acids of accession number NP_003494.1] was co-expressed as N-terminal GST-fusion protein (92 kDa) with Dbf4(ASK) [1-674(end) amino acids of accession number NP_006707.1] using baculovirus expression system. GST-Cdc7 was purified by using glutathione sepharose chromatography.
3. Assay Reagents and Procedures
Off-chip Mobility Shift Assay (MSA)
1) The […] of ×2 kinase solution were prepared with assay buffer (20 mM HEPES, 0.01% Triton X-100, 1 mM DTT, pH 7.5) and mixed and incubated in a well of polypropylene 384 well microplate for 5 hours at room temperature. 2) […] of Termination Buffer (QuickScout Screening Assist MSA; Carna Biosciences) was added to the well. 3) The reaction mixture was applied to LabChip system (Perkin Elmer), and the product and substrate peptide peaks were separated and quantitated. 4) The kinase reaction was evaluated by the product ratio calculated from peak heights of product (P) and substrate (S) peptides (P/(P+S)).
Reaction time is 5 hours.
The readout value of reaction control (complete reaction mixture) was set as a 0% inhibition, and the readout value of background (Enzyme(−)) was set as a 100% inhibition, then the percent inhibition of each test solution was calculated.
IC50 value was calculated from concentration vs. % Inhibition curves by fitting to a four parameter logistic curve.

Chain of Cdc7/ASK (O00311 whole entry): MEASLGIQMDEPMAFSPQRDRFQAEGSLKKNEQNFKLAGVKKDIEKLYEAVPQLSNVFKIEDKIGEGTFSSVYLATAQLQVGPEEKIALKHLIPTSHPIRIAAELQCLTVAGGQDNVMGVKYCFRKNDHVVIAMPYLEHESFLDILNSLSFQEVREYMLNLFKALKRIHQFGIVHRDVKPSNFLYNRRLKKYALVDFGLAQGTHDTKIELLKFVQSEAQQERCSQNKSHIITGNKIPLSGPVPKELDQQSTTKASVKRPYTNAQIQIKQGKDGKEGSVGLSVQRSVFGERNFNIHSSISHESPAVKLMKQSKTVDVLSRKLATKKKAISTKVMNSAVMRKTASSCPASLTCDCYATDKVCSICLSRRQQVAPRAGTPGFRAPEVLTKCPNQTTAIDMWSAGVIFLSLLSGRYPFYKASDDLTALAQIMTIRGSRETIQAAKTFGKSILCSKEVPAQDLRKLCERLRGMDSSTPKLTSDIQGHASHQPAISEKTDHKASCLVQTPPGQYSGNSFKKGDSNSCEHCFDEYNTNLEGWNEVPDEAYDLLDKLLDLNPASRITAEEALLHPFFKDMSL
Chain of Cdc7/ASK (Q9UBU7 whole entry partner): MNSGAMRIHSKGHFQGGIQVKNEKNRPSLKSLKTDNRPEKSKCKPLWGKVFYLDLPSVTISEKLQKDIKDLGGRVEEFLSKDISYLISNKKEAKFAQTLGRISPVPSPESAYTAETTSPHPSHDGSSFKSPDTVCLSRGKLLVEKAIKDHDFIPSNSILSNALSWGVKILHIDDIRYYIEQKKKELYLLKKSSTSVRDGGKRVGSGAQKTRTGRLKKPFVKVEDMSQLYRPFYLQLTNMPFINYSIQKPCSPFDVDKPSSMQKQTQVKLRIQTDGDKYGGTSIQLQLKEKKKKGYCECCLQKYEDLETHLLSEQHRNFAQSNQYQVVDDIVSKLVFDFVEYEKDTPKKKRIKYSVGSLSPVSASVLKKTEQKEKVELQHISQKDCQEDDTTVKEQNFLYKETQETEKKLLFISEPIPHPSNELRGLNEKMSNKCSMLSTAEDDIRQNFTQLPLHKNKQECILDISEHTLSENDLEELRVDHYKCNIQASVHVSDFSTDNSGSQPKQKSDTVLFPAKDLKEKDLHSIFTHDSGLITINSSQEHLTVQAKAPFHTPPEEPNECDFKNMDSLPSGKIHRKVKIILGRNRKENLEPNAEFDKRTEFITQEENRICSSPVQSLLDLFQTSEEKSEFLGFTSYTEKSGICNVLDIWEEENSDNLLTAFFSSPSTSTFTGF

| Biomarker Method 3 (pEC50) [1] | IC50 (Cdc7/ASK) | EC50 [1] | Biomarker Method 3 (pEC50) ([1]; hydrochloride) | Compound |
| --- | --- | --- | --- | --- |
| – | 4.79 nM | 437 nM | – | O=c1[nH]c(-c2ccnc(Cl)c2)nc(N2CCNCC(F)(F)C2)c1Cl [Compound 401] |
| – | 7.76 nM | – | 5.67 | C[C@H]1CN[C@@H](C(F)(F)F)CN1c1nc(-c2ccnc(F)c2)[nH]c(=O)c1Cl.Cl (single isomer, unassigned) [Compound 395, Cis-5-chloro-2-(2-fluoro-4-pyridyl)-4-[2-methyl-5-(trifluoromethyl)piperazin-1-yl]-1H-pyrimidin-6-one hydrochloride] |
| – | 35.5 nM | 3550 nM | – | O=c1[nH]c(-c2ccncc2)nc(N2CCNCC2C(F)F)c1Cl (centres unmarked) [Compound 391] |
| – | 9.33 nM | 708 nM | – | CN1CCN(c2nc(-c3ccnc(F)c3)[nH]c(=O)c2Cl)CC(F)(F)C1 [Compound 415, 5-chloro-4-(6,6-difluoro-4-methyl-1,4-diazepan-1-yl)-2-(2-fluoro-4-pyridyl)-1H-pyrimidin-6-one] |
| – | 5.75 nM | 195 nM | – | C[C@@H]1CNCCN1c1nc(-c2ccncc2F)[nH]c(=O)c1Cl [Compound 400] |
| – | 12.6 nM | 1660 nM | – | O=c1[nH]c(-c2ccncc2F)nc(N2CCNCC(F)(F)C2)c1Cl [Compound 399, 5-chloro-4-(6,6-difluoro-1,4-diazepan-1-yl)-2-(3-fluoro-4-pyridyl)-1H-pyrimidin-6-one hydrochloride] |
| – | 135 nM | – | 5.11 | C[C@H]1CN[C@@H](C(F)(F)F)CN1c1nc(-c2ccnc(F)c2)[nH]c(=O)c1Cl.Cl (single isomer, unassigned) [Compound 396, Cis-5-chloro-2-(2-fluoro-4-pyridyl)-4-[2-methyl-5-(trifluoromethyl)piperazin-1-yl]-1H-pyrimidin-6-one hydrochloride] |
| 5.90 | 13.8 nM | – | – | Cl.O=c1[nH]c(-c2ccnc(F)c2)nc(N2CCNC(C3CC3)C2)c1Cl (single isomer, unassigned) [Compound 393] |

Continued, compound first:

| Compound | Biomarker Method 3 (pEC50) [1] | IC50 (Cdc7/ASK) | EC50 [1] | Biomarker Method 3 (pEC50) ([1]; hydrochloride) |
| --- | --- | --- | --- | --- |
| Cl.O=c1[nH]c(-c2ccnc(F)c2)nc(N2CCNCC2C(F)(F)F)c1Cl (single isomer, unassigned) [Compound 383] | 6.67 | 4.47 nM | – | – |
| O=c1[nH]c(-c2ccnc(F)c2)nc(N2CCNCC2C(F)(F)F)c1Cl (centres unmarked) [Compound 313, 5-chloro-2-(2-fluoro-4-pyridyl)-4-[2-(trifluoromethyl)piperazin-1-yl]-1H-pyrimidin-6-one hydrochloride] | – | 8.51 nM | 759 nM | – |
| O=c1[nH]c(-c2ccnc(F)c2)nc(N2CCNCC23CC3)c1Cl [Compound 377] | – | 4.37 nM | 148 nM | – |
| O=c1[nH]c(-c2ccnc(F)c2)nc(N2CCNCC(F)C2)c1Cl (centres unmarked) [Compound 373] | – | 5.25 nM | 389 nM | – |
| CC(C)(F)C1CN(c2nc(-c3ccnc(F)c3)[nH]c(=O)c2Cl)CCN1 (single isomer, unassigned) [Compound 382, 5-chloro-4-[3-(1-fluoro-1-methyl-ethyl)piperazin-1-yl]-2-(2-fluoro-4-pyridyl)-1H-pyrimidin-6-one hydrochloride] | – | 11.7 nM | – | 6.16 |
| Cl.O=c1[nH]c(-c2ccncc2)nc(N2CCNCC2C(F)(F)F)c1Cl (single isomer, unassigned) [Compound 387] | 6.51 | 6.03 nM | – | – |
| O=c1[nH]c(-c2ccnc(F)c2)nc(N2CCNCC(C(F)(F)F)C2)c1Cl (centres unmarked) [Compound 375] | – | 7.41 nM | 1230 nM | – |
| Cl.O=c1[nH]c(-c2ccncc2)nc(N2CCNCC2C(F)(F)F)c1Cl (single isomer, unassigned) [Compound 388] | 5.29 | 91.2 nM | – | – |
| CC(C)(F)C1CN(c2nc(-c3ccnc(F)c3)[nH]c(=O)c2Cl)CCN1 (single isomer, unassigned) [Compound 381, 5-chloro-4-[3-(1-fluoro-1-methyl-ethyl)piperazin-1-yl]-2-(2-fluoro-4-pyridyl)-1H-pyrimidin-6-one hydrochloride] | – | 70.8 nM | – | 5.32 |
| Cl.O=c1[nH]c(-c2ccnc(F)c2)nc(N2CCNCC2C(F)(F)F)c1Cl (single isomer, unassigned) [Compound 384] | 5.33 | 42.7 nM | – | – |
| Cl.O=c1[nH]c(-c2ccnc(F)c2)nc(N2CCNCC(C(F)(F)F)C2)c1Cl (centres unmarked) [Compound 386] | 6.00 | 5.62 nM | – | – |
| O=c1[nH]c(-c2ccnc(F)c2)nc(N2CCNCC2C(F)F)c1Cl (centres unmarked) [Compound 376] | – | 5.5 nM | 141 nM | – |
| O=c1[nH]c(-c2ccnc(F)c2)nc(N2CCNCC(F)C2)c1Cl (single isomer, unassigned) [Compound 379, 5-chloro-4-(6-fluoro-1,4-diazepan-1-yl)-2-(2-fluoro-4-pyridyl)-1H-pyrimidin-6-one hydrochloride] | – | 7.94 nM | – | 5.88 |
| Cl.O=c1[nH]c(-c2ccnc(F)c2)nc(N2CCNCC2C(F)F)c1Cl (single isomer, unassigned) [Compound 389] | 5.68 | 21.4 nM | – | – |

From patent US10919896B2, “Preparation and uses of pyrimidinone derivatives” (Cancer Research Technology Limited, priority 2016, dated 2021)
